Laboratory results: ChEMBL document CHEMBL1201862, “PubChem BioAssay data set” (2004)
Several values for one entry are separate records, joined by “and”; a condition that tells them apart may be missing. Equal values may be shown once.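 Interpolation was linear, between the two tested concentrations surrounding the appropriate level; five concentrations were tested over 48 hours in 96-well plates. GI50: concentration for 50% inhibition of growth.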 Activity calls are given as the source filed them. Rule as the data show it: active = GI50 up to about 1.1 µM and inactive = higher. Starred links: 1 amine or outer side, 2 acyl side, 3 side chain; linkers in the order of their positions; H or OH if unused. Positions of bridges follow the written chain, without caps; N, C: chain ends. Non-standard residues stand in square brackets, D forms with d. Residues, ends and D or L forms follow the SMILES beside them. Chains are numbered I, II in the order given. Actinocin(9to1) = Cc1c2oc3c(C)ccc(C(=O)[*:1])c3nc-2c(C(=O)[*:2])c(N)c1=O; NMeT = CN[CH](C(=O)O)[CH](C)O; Sar = CNCC(=O)O

How the values were obtained:
Test in all cases: NCI anticancer screen, dose series, 48 h
786-0 = tested on: 786-0
A498 = tested on: A498
A549 = tested on: A549
ACHN = tested on: ACHN
CAKI-1 = tested on: CAKI-1
CCRF-CEM = tested on: CCRF-CEM
COLO 205 = tested on: COLO 205
DU-145 = tested on: DU-145
EKVX = tested on: EKVX
HCC 2998 = tested on: HCC 2998
HCT-116 = tested on: HCT-116
HCT-15 = tested on: HCT-15
HL-60 = tested on: HL-60
HOP-62 = tested on: HOP-62
HOP-92 = tested on: HOP-92
HT-29 = tested on: HT-29
Hs-578T = tested on: Hs-578T
K562 = tested on: K562
KM12 = tested on: KM12
LOX IMVI = tested on: LOX IMVI
M14 = tested on: M14
MCF7 = tested on: MCF7
MDA-MB-231 = tested on: MDA-MB-231
MDA-MB-435 = tested on: MDA-MB-435
MDA-N = tested on: MDA-N
MOLT-4 = tested on: MOLT-4
Malme-3M = tested on: Malme-3M
NCI-H226 = tested on: NCI-H226
NCI-H23 = tested on: NCI-H23
NCI-H460 = tested on: NCI-H460
NCI-H522 = tested on: NCI-H522
NCI/ADR-RES = tested on: NCI/ADR-RES
OVCAR-3 = tested on: OVCAR-3
OVCAR-5 = tested on: OVCAR-5
OVCAR-8 = tested on: OVCAR-8
PC-3 = tested on: PC-3
RPMI-8226 = tested on: RPMI-8226
RXF 393 = tested on: RXF 393
SF-268 = tested on: SF-268
SF-295 = tested on: SF-295
SF-539 = tested on: SF-539
SK-MEL-28 = tested on: SK-MEL-28
SK-MEL-2 = tested on: SK-MEL-2
SK-MEL-5 = tested on: SK-MEL-5
SK-OV-3 = tested on: SK-OV-3
SN12C = tested on: SN12C
SNB-19 = tested on: SNB-19
SNB-75 = tested on: SNB-75
SR = tested on: SR
SW-620 = tested on: SW-620
T47D = tested on: T47D
TK-10 = tested on: TK-10
U-251 = tested on: U-251
UACC-257 = tested on: UACC-257
UACC-62 = tested on: UACC-62
UO-31 = tested on: UO-31
IGROV-1 = tested on: IGROV-1
OVCAR-4 = tested on: OVCAR-4

CN(C)N1C(=O)SCC(c2ccccc2)(c2ccccc2)C1=O
GI50 (786-0): > 100 µM (inactive) | GI50 (A498): > 100 µM (inactive) | GI50 (A549): 68.2 µM (inactive) | GI50 (ACHN): > 100 µM (inactive) | GI50 (CAKI-1): > 100 µM (inactive) | GI50 (CCRF-CEM): > 100 µM (inactive) | GI50 (COLO 205): > 100 µM (inactive) | GI50 (DU-145): > 100 µM (inactive) | GI50 (EKVX): > 100 µM (inactive) | GI50 (HCC 2998): > 100 µM (inactive) | GI50 (HCT-116): > 100 µM (inactive) | GI50 (HCT-15): > 100 µM | GI50 (HL-60): > 100 µM (inactive) | GI50 (HOP-62): > 100 µM (inactive) | GI50 (HOP-92): > 100 µM (inactive) | GI50 (HT-29): > 100 µM (inactive) | GI50 (Hs-578T): > 100 µM (inactive) | GI50 (K562): 87.7 µM (inactive) | GI50 (KM12): > 100 µM (inactive) | GI50 (LOX IMVI): > 100 µM (inactive) | GI50 (M14): > 100 µM (inactive) | GI50 (MCF7): 54.8 µM (inactive) | GI50 (MDA-MB-231): > 100 µM (inactive) | GI50 (MDA-MB-435): > 100 µM (inactive) | GI50 (MDA-N): > 100 µM (inactive) | GI50 (MOLT-4): > 100 µM (inactive) | GI50 (Malme-3M): > 100 µM (inactive) | GI50 (NCI-H226): > 100 µM (inactive) | GI50 (NCI-H23): > 100 µM (inactive) | GI50 (NCI-H460): > 100 µM (inactive) | GI50 (NCI-H522): 84.5 µM (inactive) | GI50 (NCI/ADR-RES): > 100 µM (inactive) | GI50 (OVCAR-3): > 100 µM (inactive) | GI50 (OVCAR-5): > 100 µM (inactive) | GI50 (OVCAR-8): > 100 µM (inactive) | GI50 (PC-3): > 100 µM (inactive) | GI50 (RPMI-8226): 78 µM (inactive) | GI50 (RXF 393): > 100 µM (inactive) | GI50 (SF-268): > 100 µM (inactive) | GI50 (SF-295): > 100 µM (inactive) | GI50 (SF-539): > 100 µM (inactive) | GI50 (SK-MEL-28): > 100 µM (inactive) | GI50 (SK-MEL-2): 63.4 µM (inactive) | GI50 (SK-MEL-5): > 100 µM (inactive) | GI50 (SK-OV-3): > 100 µM (inactive) | GI50 (SN12C): > 100 µM (inactive) | GI50 (SNB-19): > 100 µM (inactive) | GI50 (SNB-75): 60.1 µM (inactive) | GI50 (SR): > 100 µM (inactive) | GI50 (SW-620): > 100 µM (inactive) | GI50 (T47D): > 100 µM (inactive) | GI50 (TK-10): > 100 µM (inactive) | GI50 (U-251): > 100 µM (inactive) | GI50 (UACC-257): > 100 µM (inactive) | GI50 (UACC-62): 56.8 µM (inactive) | GI50 (UO-31): > 100 µM (inactive)

CC(C)(Cl)C(Br)CCC(Br)(CCl)C(Cl)CBr (configuration not stated)
GI50 (786-0): > 10 µM (inactive) | GI50 (A498): > 10 µM (inactive) | GI50 (ACHN): > 10 µM (inactive) | GI50 (CAKI-1): > 10 µM (inactive) | GI50 (CCRF-CEM): > 10 µM (inactive) | GI50 (COLO 205): > 10 µM (inactive) | GI50 (DU-145): > 10 µM (inactive) | GI50 (EKVX): > 10 µM (inactive) | GI50 (HCC 2998): > 10 µM (inactive) | GI50 (HCT-15): > 10 µM | GI50 (HL-60): > 10 µM (inactive) | GI50 (HOP-62): > 10 µM (inactive) | GI50 (HOP-92): > 10 µM (inactive) | GI50 (HT-29): > 10 µM (inactive) | GI50 (Hs-578T): > 10 µM (inactive) | GI50 (IGROV-1): > 10 µM (inactive) | GI50 (K562): > 10 µM (inactive) | GI50 (KM12): > 10 µM (inactive) | GI50 (LOX IMVI): > 10 µM (inactive) | GI50 (M14): > 10 µM (inactive) | GI50 (MCF7): > 10 µM (inactive) | GI50 (MDA-MB-231): > 10 µM (inactive) | GI50 (MDA-MB-435): > 10 µM (inactive) | GI50 (MDA-N): > 10 µM (inactive) | GI50 (MOLT-4): > 10 µM (inactive) | GI50 (Malme-3M): > 10 µM (inactive) | GI50 (NCI-H226): > 10 µM (inactive) | GI50 (NCI-H23): > 10 µM (inactive) | GI50 (NCI-H460): > 10 µM (inactive) | GI50 (NCI-H522): > 10 µM (inactive) | GI50 (NCI/ADR-RES): > 10 µM (inactive) | GI50 (OVCAR-3): > 10 µM (inactive) | GI50 (OVCAR-4): > 10 µM (inactive) | GI50 (OVCAR-5): > 10 µM (inactive) | GI50 (OVCAR-8): > 10 µM (inactive) | GI50 (PC-3): > 10 µM (inactive) | GI50 (RPMI-8226): > 10 µM (inactive) | GI50 (RXF 393): > 10 µM (inactive) | GI50 (SF-295): > 10 µM (inactive) | GI50 (SF-539): > 10 µM (inactive) | GI50 (SK-MEL-28): > 10 µM (inactive) | GI50 (SK-MEL-2): > 10 µM (inactive) | GI50 (SK-MEL-5): > 10 µM (inactive) | GI50 (SK-OV-3): > 10 µM (inactive) | GI50 (SN12C): > 10 µM (inactive) | GI50 (SNB-19): > 10 µM (inactive) | GI50 (SNB-75): > 10 µM (inactive) | GI50 (SR): > 10 µM (inactive) | GI50 (SW-620): > 10 µM (inactive) | GI50 (T47D): > 10 µM (inactive) | GI50 (TK-10): > 10 µM (inactive) | GI50 (U-251): > 10 µM (inactive) | GI50 (UACC-257): > 10 µM (inactive) | GI50 (UO-31): > 10 µM (inactive)

Cc1c2oc3c(C)ccc(C(=O)NC4C(=O)NC(C(C)C)C(=O)N5CCCC5C(=O)N(C)CC(=O)N(C)C(C(C)O)C(=O)OC4C)c3nc-2c(C(=O)NC2C(=O)NC(C(C)C)C(=O)N3CCCC3C(=O)N(C)CC(=O)N(C)C(C(C)O)C(=O)OC2C)c(N)c1=O (configuration not stated) (I: TVP[Sar][NMeT] / II: TVP[Sar][NMeT]; ester I:1-I:C, II:1-II:C; linker I:N-II:N via Actinocin(9to1); configuration not given here)
GI50 (ACHN): 1.69 µM (inactive) | GI50 (CCRF-CEM): 1.59 µM (inactive) and 957 nM (active) | GI50 (HCT-116): 556 nM (active) and 472 nM (active) | GI50 (HOP-62): 1.18 µM (inactive) and 792 nM (active) | GI50 (HOP-92): > 1 µM (active) and 1.9 µM (inactive) | GI50 (Hs-578T): 1.46 µM (inactive) | GI50 (IGROV-1): 512 nM (active) and 914 nM (active) | GI50 (K562): 0.586 µM (active) | GI50 (LOX IMVI): 565 nM (active) and 557 nM (active) | GI50 (MCF7): 445 nM (active) and 671 nM (active) | GI50 (MDA-N): 1.68 µM (inactive) | GI50 (MOLT-4): > 1 µM (active) and 875 nM (active) | GI50 (NCI-H23): > 1 µM (active) and 1.41 µM (inactive) | GI50 (NCI-H460): 470 nM (active) and 401 nM (active) | GI50 (NCI-H522): 173 nM (active) and 255 nM (active) | GI50 (OVCAR-8): 1.1 µM (active) | GI50 (RPMI-8226): 0.773 µM (active) | GI50 (RXF 393): 453 nM (active) and 820 nM (active) | GI50 (SF-268): > 1 µM (active) and 1.63 µM (inactive) | GI50 (SF-539): 518 nM (active) and 533 nM (active) | GI50 (SK-MEL-28): 583 nM (active) and 769 nM (active) | GI50 (SK-MEL-2): 0.719 µM (active) | GI50 (SN12C): > 1 µM (active) and 1.26 µM (inactive) | GI50 (SNB-75): 313 nM (active) and 186 nM (active) | GI50 (SW-620): > 1 µM (active) and 834 nM (active) | GI50 (U-251): 495 nM (active) and 369 nM (active) | GI50 (UACC-62): 0.478 µM (active)
